From patent US9884812B2, “Use of DDX3X inhibitors for the treatment of pneumovirus infections” (priority 2014, dated 2018)
Read-outs that look alike come from different tables or passages of the source.

What was measured:
[1] = Solubility in cell medium; format: physicochemical; conditions: solution of ligand in DMSO (20 mM) diluted in cell media to 100 μM; scale from 'very poor' (almost insoluble) to 'very good' (freely soluble over extended periods at 4° C.)
HEp2 or BSC1 cells = assay: Toxicity to cells in the TCID50 screen (mock control); format: cell-based
Method: This method provides a rapid approach to initially screen compounds and was developed as an increased number of compounds were synthesised. […] Virus was then added over 5 different half log dilutions starting at a multiplicity of infection of 0.02 plus mock control. Three dilutions of compound plus a DMSO control were screened per plate. […] Identical plate repeats for each compound dilution were fixed in subsequent days as indicated.

RSV = assay: 96 well plate TCID50 (cellular RSV TCID50 assay); format: cell-based; conditions: summary of activities in cellular RSV TCID50 assay; symbols − to +++++ not defined
Method: This method provides a rapid approach to initially screen compounds and was developed as an increased number of compounds were synthesised. Cells of a standard cell line known to support pneumovirus replication (typically HEp2 or BSC1 cells) were grown to 95% confluence in a 96 well plate. Virus was then added over 5 different half log dilutions starting at a multiplicity of infection of 0.02 plus mock control. Three dilutions of compound plus a DMSO control were screened per plate. […] Identical plate repeats for each compound dilution were fixed in subsequent days as indicated.
Stained plates were read at 595 nm, higher optical density (OD) readings indicate more viable cells remain.

hRSV (strain A2) = assay: Plaque inhibition assay, hRSV; format: cell-based, human respiratory syncytial virus
Method: Example: Plaque inhibition assay
An identical assay procedure was carried out for hRSV (strain A2) bovine RS (strain Snook) and PVM (strain 15). Virus stocks were diluted 10 fold in GMEM (Invitrogen) so that the wells containing cells received sufficient virus to generate approximately 2000, 200 and 20 plaques per well.
The overlay medium also contained the compound to be tested at appropriate concentrations. Typically the 6 concentrations of the test compounds used were: 100 μM, 31.6 μM, 10 μM, 3.16 μM, 1 μM and 0.316 μM.
Stocks of the test compounds were prepared in DMSO (Sigma) (carrier). Each stock compound was diluted 1 in 200 in overlay medium to give dilutions stated above.
Cells of a standard cell line known to support pneumovirus replication (typically HEp2 or BSC1 cells) were grown in standard 12 well plates at 37° C. in an atmosphere of 5% (v/v) CO2 until confluent. Medium was aspirated from the cells and replaced with 200 μl aliquots of virus. Aliquots were prepared by diluting virus stocks 10-fold in GMEM (Invitrogen) as described above with no FCS. A mock (no virus) was also set up to test cell viability. The virus was incubated with the cells for 1 hour at 33° C. with gentle rocking every 5-10 minutes. The inocula were removed and 2 ml of overlay medium was added. Overlay medium was either test (plus compound) or control (medium alone or medium containing DMSO). The plates were incubated at 33° C. for 4-8 days to allow plaques to develop as indicated. A volume of 1 ml of additional overlay medium (containing the test compound as appropriate) was added every 3 days. All virus dilutions were carried out with each concentration of test compound, or treated as controls, and each was carried out in triplicate.
Following incubation, cells were fixed by addition of an equal volume of 4% (v/v) glutaraldehyde (Sigma) in PBS with further incubation for a minimum of 2 hours. The fixing solution was washed off under a slow flowing stream of water and 1 ml of crystal violet (0.075% w/v: Sigma) was added and left for 20 minutes at room temperature. The crystal violet was removed and the fixed cell monolayers washed. Plates were air dried. Plaques counts were recorded from wells with >20 and <200 in number. These numbers provide the most robust statistical reliability for viable plaque counts.
This experimental approach screens the ability of compounds to block the formation of plaques.

[2] = cellular RSV TCID50 assay tables

Compound | Solubility in cell medium [1] | Toxicity (HEp2 or BSC1 cells; [2]) | other results
Cc1ccccc1NC(=O)Nc1cccc([S+](C)[O-])c1 (stereo not drawn) [Compound 5, 3-(3-methanesulfinylphenyl)-1-(2-methylphenyl)urea] | good | very low | 
Cc1ccccc1NC(=O)Nc1cccc(Br)c1 [Compound 16, 1-(3-bromophenyl)-3-(2-methylphenyl)urea] | moderate | toxic at 100 μM | 
Cc1ccccc1NC(=O)NCCCOCCOCCOCCCNC(=O)Nc1ccccc1C [Compound 38, 1-(2-methylphenyl)-3-(3-{2-[2-(3-{[(2-methylphenyl)carbamoyl]-amino}propoxy)ethoxy]ethoxy}propyl)urea] | good | toxic at 50 μM | 
N#Cc1ccc(NC(=O)Nc2ccccn2)cc1 [Compound 8, 3-(4-cyanophenyl)-1-(pyridin-2-yl)urea] | moderate | toxic at 100, 32, 10 μM | 
Cc1ccccc1NC(=O)Nc1cccc(C#N)c1 [Compound 3, 3-(3-cyanophenyl)-1-(2-methylphenyl)urea] | good | low | Plaque size relative to DMSO control (hRSV (strain A2); hRSV plaque assay): much smaller; Plaque size (hRSV (strain A2); hRSV, HEp2 cells, 5 days, at 31.6 μM and to some extent 10 μM): very small; IC50 (hRSV (strain A2); human respiratory syncytial virus, HEp-2, 120 h, hRSV, HEp2 cells, Day 5, read-out: IC50 (plaque number vs DMSO control)): ~50 µM
O=C(Nc1cccc(NC(=O)Nc2cccc([N+](=O)[O-])c2)c1)Nc1cccc([N+](=O)[O-])c1 [Compound 31, 1,1′-(1,3-phenylene)bis(3-(3-nitrophenyl)urea)] | very poor |  | Toxicity (HEp2 or BSC1 cells): toxic at 100 μM
CSc1cccc(NC(=O)Nc2cccc(NC(=O)Nc3cccc(SC)c3)c2)c1 [Compound 33, 1,1′-(1,3-phenylene)bis(3-(3-(methylthio)phenyl)urea)] | poor | toxic at 100 μM | 
COc1cccc(NC(=O)Nc2cccc(NC(=O)Nc3cccc(OC)c3)c2)c1 [Compound 34, 1,1′-(1,3-phenylene)bis(3-(3-methoxyphenyl)urea)] | poor | toxic at 100 μM | 
Cc1ccccc1NC(=S)Nc1cccc([N+](=O)[O-])c1 [Compound 17, 3-(2-methylphenyl)-1-(3-nitrophenyl)thiourea] | good | toxic at 100 μM | 
CC1CCCCC1NC(=O)Nc1cccc([N+](=O)[O-])c1 (stereo not drawn) [Compound 21, 3-(2-methylcyclohexyl)-1-(3-nitrophenyl)urea] | moderate | toxic at 100 μM | 
Cc1ccccc1NC(=O)Nc1ccc(SC(F)(F)F)cc1 [Compound 42, 1-(o-tolyl)-3-(4-((trifluoromethyl)thio)phenyl)urea] | Good | Very toxic at 100 μM | Activity (RSV): Plaques reduced
N#Cc1cccc(NC(=O)Nc2ccccn2)c1 [Compound 11, 3-(3-cyanophenyl)-1-(pyridin-2-yl)urea] | moderate | toxic at 100 μM | 
CC(=O)c1cccc(NC(=O)Nc2ccccc2C)c1 [Compound 2, 1-(3-acetylphenyl)-3-(2-methylphenyl)urea] | good | very low | 
Cc1ccccc1NC(=O)Nc1ccc(OC(F)(F)F)cc1 [Compound 43, 1-(o-tolyl)-3-(4-(trifluoromethoxy)phenyl)urea] | Good | Toxic at 100 μM | Activity (RSV): Plaques reduced
N#Cc1cccc(NC(=O)Nc2ncccn2)c1 [Compound 12, 3-(3-cyanophenyl)-1-(pyrimidin-2-yl)urea] | poor | toxic at 100 μM | 
COc1cccc(NC(=O)Nc2ccccc2C)c1 [Compound 13, 3-(3-methoxyphenyl)-1-(2-methylphenyl)urea] | good | toxic at 100 μM | 

Now from value to molecule, other results behind:

Solubility in cell medium [1] | Compound | Toxicity (HEp2 or BSC1 cells; [2]) | other results
Good | COc1ccc(NC(=O)Nc2ccccc2C)cc1OC [Compound 45, 1-(3,4-dimethoxyphenyl)-3-(o-tolyl)urea] | Low | Activity (RSV): Inactive
good | CCCCCCCCNC(=S)Nc1ccccc1C [Compound 28, 1-(2-methylphenyl)-3-octylthiourea] | low | 
very good | Cc1ccccc1NC(=S)Nc1cccc(C#N)c1 [Compound 18, 1-(3-cyanophenyl)-3-(2-methylphenyl)thiourea] | low | 
moderate | CCCCCCCCNC(=O)Nc1ccccc1C [Compound 25, 1-(2-methylphenyl)-3-octylurea] | low | 
Moderate at 100 μM | Cc1ccccc1NC(=O)Nc1ccc(I)cc1 [Compound 44, 1-(4-iodophenyl)-3-(o-tolyl)urea] | Low | Activity (RSV): Inactive
Moderate at 100 μM | Cc1ccccc1NC(=O)Nc1ccc(Br)cc1 [Compound 41, 1-(4-bromophenyl)-3-(o-tolyl)urea] | Low | 
good | CCCCCCCCNC(=O)Nc1ccc(C#N)cc1 [Compound 24, 1-(4-cyanophenyl)-3-octylurea] | low | 
good | COc1ccc(NC(=O)Nc2ccccc2C)cc1 [Compound 15, 1-(4-methoxyphenyl)-3-(2-methylphenyl)urea] | low | 
moderate | N#Cc1cccc(NC(=O)Nc2cccnc2)c1 [Compound 7, 3-(3-cyanophenyl)-1-(pyridin-3-yl)urea] | low | 
good | Cc1ccccc1NC(=O)N1CCOCC1 [Compound 27, N-(2-methylphenyl)morpholine-4-carboxamide] | low | 
good | Cc1ccccc1NC(=O)Nc1ccccn1 [Compound 9, 1-(2-methylphenyl)-3-(pyridin-2-yl)urea] | low | 
moderate | Cc1ccccc1NC(=O)Nc1cccnc1 [Compound 10, 1-(2-methylphenyl)-3-(pyridin-3-yl)urea] | low | 
moderate | CC1CCCCC1NC(=O)Nc1ccc(C#N)cc1 (stereo not drawn) [Compound 22, 1-(4-cyanophenyl)-3-(2-methylcyclohexyl)urea] | low | 
moderate | CC1CCCCC1NC(=O)Nc1cccc(C#N)c1 (stereo not drawn) [Compound 23, 1-(3-cyanophenyl)-3-(2-methylcyclohexyl)urea] | low | 
good | CSc1ccc(NC(=O)Nc2ccccc2C)cc1 [Compound 14, 3-(2-methylphenyl)-1-[4-(methylsulfanyl)phenyl]urea] | low | 
good | Cc1ccccc1NC(=O)NCCN(C)C [Compound 26, 3-[2-(dimethylamino)ethyl]1-(2-methylphenyl)urea] | low | 
good | Cc1ccccc1NC(=S)NCCN(C)C [Compound 29, 3-[2-(dimethylamino)ethyl]-1-(2-methylphenyl)thiourea] | low | 
very good | Cc1ccccc1NC(=S)N1CCOCC1 [Compound 30, N-(2-methylphenyl)morpholine-4-carbothioamide] | low | 
